One test concerns Bacillus subtilis. The test is described as follows: Antibacterial activity against Bacillus subtilis assessed as bacterial growth inhibition at 50 ug/ml after 24 hrs by cup-plate agar diffusion method. The format is functional. The conditions noted are these: read-out: IZ. (A growth-free zone around the sample is the usual read-out of agar diffusion tests.)
Test [1] relates to Escherichia coli. The test is described as follows: Antibacterial activity against Escherichia coli assessed as bacterial growth inhibition at 50 ug/ml after 24 hrs by cup-plate agar diffusion method. The format is functional. The conditions noted are these: read-out: IZ.
Test [2] concerns Escherichia coli. The test is described as follows: Induction of DNA cleavage of Escherichia coli pUC18 plasmid DNA at 50 ug/ml after 2 hrs by agarose gel elctrophoresis method.
Test [3] deals with Escherichia coli. The test can be described thus: Induction of DNA cleavage of Escherichia coli pUC18 plasmid DNA at 100 ug/ml after 2 hrs by agarose gel elctrophoresis method.

The source made the active and inactive calls. The rule behind the calls is not given here.

For the compound `CCn1cc(/C=N/Nc2nc(-c3cc4cc(Br)cc(Br)c4oc3=O)cs2)c2ccccc21`, the zone of inhibition at 50 µg/mL in the test on Bacillus subtilis and with Escherichia coli [1] was 10 mm in each case. The outcome in the test on Escherichia coli [2] was Active.

With `Cc1[nH]c2ccccc2c1/C=N/Nc1nc(-c2cc3cc(Br)ccc3oc2=O)cs1`, the zone of inhibition at 50 µg/mL with Bacillus subtilis was determined as 10 mm; with Escherichia coli [1] it was 12 mm. For the same compound, in the test on Escherichia coli [2], the outcome was Active.

For `O=c1oc2ccc(Br)cc2cc1-c1csc(N/N=C/c2c[nH]c3ccccc23)n1`, the zone of inhibition at 50 µg/mL with Bacillus subtilis is 15 mm; in the test with Escherichia coli [1], 13 mm. In addition, the outcome in the test with Escherichia coli [2] was Active.

Take `O=c1oc2ccc(Cl)cc2cc1-c1csc(N/N=C/c2c[nH]c3ccccc23)n1`: the zone of inhibition at 50 µg/mL with Bacillus subtilis stood at 13 mm; with Escherichia coli [1], 15 mm. Moreover, the result in the test on Escherichia coli [2] was Active.

With `COc1ccc2[nH]cc(/C=N/Nc3nc(-c4cc5cc(Br)cc(Br)c5oc4=O)cs3)c2c1`, the zone of inhibition at 50 µg/mL in the test on Bacillus subtilis and in the test with Escherichia coli [1] was 10 mm throughout. Besides, the result with Escherichia coli [2] was Active.

`CCn1cc(/C=N/Nc2nc(-c3cc4cc(Br)ccc4oc3=O)cs2)c2ccccc21`: the zone of inhibition at 50 µg/mL in the test on Bacillus subtilis and in the test on Escherichia coli [1] was 15 mm each time. For the same compound, the result in the test on Escherichia coli [2] was Active.

In the case of `O=c1oc2ccccc2cc1-c1csc(N/N=C/c2c[nH]c3ccc(Br)cc23)n1`, the values for the zone of inhibition at 50 µg/mL in the test with Bacillus subtilis and in the test with Escherichia coli [1] were 15 mm and 10 mm, respectively. Besides, the outcome with Escherichia coli [2] was Active.

Regarding `Cc1[nH]c2ccccc2c1/C=N/Nc1nc(-c2cc3ccccc3oc2=O)cs1`, the figures for the zone of inhibition at 50 µg/mL in the test on Bacillus subtilis and in the test with Escherichia coli [1] were 13 mm and 10 mm, respectively. In addition, in the test with Escherichia coli [2], the outcome was Active.

As for `Cc1[nH]c2ccccc2c1/C=N/Nc1nc(-c2cc3cc(Br)cc(Br)c3oc2=O)cs1`, the zone of inhibition at 50 µg/mL in the test with Bacillus subtilis amounted to 15 mm; in the test with Escherichia coli [1], 12 mm. Further, the result with Escherichia coli [2] was Active.

Regarding `CCn1cc(/C=N/Nc2nc(-c3cc4c(ccc5ccccc54)oc3=O)cs2)c2ccccc21`, the values for the zone of inhibition at 50 µg/mL in the test on Bacillus subtilis and in the test on Escherichia coli [1] were 15 mm and 12 mm, respectively. The outcome with Escherichia coli [3] was Active.

Turning to `COc1ccc2[nH]cc(/C=N/Nc3nc(-c4cc5c(ccc6ccccc65)oc4=O)cs3)c2c1`, the zone of inhibition at 50 µg/mL was 15 mm in the test on Bacillus subtilis and 12 mm in the test on Escherichia coli [1]. For the same compound, the result with Escherichia coli [2] was Active.

As for `Cc1[nH]c2ccccc2c1/C=N/Nc1nc(-c2cc3cc(Cl)ccc3oc2=O)cs1`, the zone of inhibition at 50 µg/mL with Bacillus subtilis is 10 mm; in the test with Escherichia coli [1], 6 mm. Moreover, the outcome in the test on Escherichia coli [2] was Active.

As to `O=c1oc2ccc3ccccc3c2cc1-c1csc(N/N=C/c2c[nH]c3ccccc23)n1`, the zone of inhibition at 50 µg/mL with Bacillus subtilis came out at 15 mm; in the test with Escherichia coli [1], 14 mm. In addition, the result in the test on Escherichia coli [2] was Active.

Consider `CCn1cc(/C=N/Nc2nc(-c3cc4ccccc4oc3=O)cs2)c2ccccc21`, for which the zone of inhibition at 50 µg/mL with Bacillus subtilis and in the test on Escherichia coli [1] was 10 mm throughout. The outcome in the test with Escherichia coli [3] was Active.

As to `COc1ccc2[nH]cc(/C=N/Nc3nc(-c4cc5ccccc5oc4=O)cs3)c2c1`, the zone of inhibition at 50 µg/mL in the test on Bacillus subtilis is 13 mm; in the test with Escherichia coli [1], 10 mm. In the test on Escherichia coli [2], the result was Active.

As to `O=c1oc2c(Br)cc(Br)cc2cc1-c1csc(N/N=C/c2c[nH]c3ccccc23)n1`, the zone of inhibition at 50 µg/mL stood at 10 mm with Bacillus subtilis and 7 mm in the test on Escherichia coli [1]. Moreover, in the test on Escherichia coli [2], the result was Active.
